In PubChem BioAssay (NCI) one finds TGI and GI50 data, which are given here for 14 molecules.

Molecules are shown by their SMILES.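 Growth conditions: 96-well plates. Treatment: test compound, 48 hours, 5 concentrations. Analysis: linear interpolation between bracketing concentrations; unreached endpoints set to highest concentration. The concentration for 50% growth inhibition is given as GI50. The concentration for full growth arrest is given as TGI.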

Among the test systems are HS 578T breast; MDA-MB-435; BT-549 breast; HOP-18 NSCLC; DMS 114 small cell lung; SN12C renal; KM20L2 colon; P388 leukemia; MDA-MB-231 breast; DU-145 prostate; MDA-N; T-47D breast; LXFL 529 NSCLC; XF 498 CNS.
What all share (assay): NCI tumour cell line growth inhibition, 48 h

Take `N#CN=[N+]([O-])c1ccc(C(=O)O)cc1`: the TGI in the experiment with HS 578T breast amounted to 61.3 µM; with MDA-MB-435, 31.8 µM; in the experiment with BT-549 breast, 31.4 µM.
With `CSc1nc(NC2OCC(O)C(O)C2O)c(N)c(=O)[nH]1` (centres undefined), the TGI with HOP-18 NSCLC, with DMS 114 small cell lung, in the experiment with SN12C renal, with KM20L2 colon and in the experiment with P388 leukemia was over 100 µM in each case.
Consider `Cc1cc2c(cc1C)OC(=O)CC2`, for which the TGI in the experiment on HS 578T breast, in the experiment with MDA-MB-231 breast, in the experiment on SN12C renal, in the experiment on DU-145 prostate, with MDA-MB-435 and with MDA-N was over 100 µM throughout. In addition, the TGI in the experiment with T-47D breast and with BT-549 breast was over 100 µM throughout.
On to `NCCCOc1ccc([N+](=O)[O-])cc1Cl`, for which the TGI in the experiment with DMS 114 small cell lung, with LXFL 529 NSCLC, in the experiment on XF 498 CNS and in the experiment with KM20L2 colon was over 100 µM in each case.
Regarding `CC(=O)c1ccc2c(c1)c1c(C)c3c[n+](C)ccc3c(C)c1n2C`, the TGI is 75.9 µM in the experiment on HOP-18 NSCLC; 25.6 µM in the experiment on DMS 114 small cell lung; 4.9 µM in the experiment with SN12C renal; 17.1 µM with XF 498 CNS; over 100 µM with KM20L2 colon; 4.68 µM with P388 leukemia.
Regarding `C/C(N=NS(=O)(=O)c1ccccc1)=C1\C=CC=CN1O`, the TGI in the experiment on HOP-18 NSCLC, in the experiment on DMS 114 small cell lung, in the experiment on SN12C renal, with LXFL 529 NSCLC, with XF 498 CNS and in the experiment on KM20L2 colon was over 100 µM each time.
Regarding `Cc1cc(C)n(-c2nsc3ccccc23)n1`, the TGI in the experiment with HOP-18 NSCLC, in the experiment on DMS 114 small cell lung, in the experiment with SN12C renal, in the experiment on LXFL 529 NSCLC and in the experiment with KM20L2 colon was over 100 µM each time.
Take `CC(=O)OCC1=C(C(=O)O)N2C(=O)C(NC(=O)CSc3ccncc3)C2SC1` (centres undefined): the TGI in the experiment with HS 578T breast, in the experiment with MDA-MB-231 breast, in the experiment with SN12C renal, in the experiment with DU-145 prostate, in the experiment with MDA-MB-435 and in the experiment on MDA-N was over 100 µM each time. The TGI in the experiment with T-47D breast and with BT-549 breast was over 100 µM each time.
Consider `CCOC(=O)NC(Nc1ncccn1)(C(=O)OCC)C(F)(F)F` (centres undefined), for which the TGI in the experiment with HS 578T breast, in the experiment on MDA-MB-231 breast, with SN12C renal, in the experiment with DU-145 prostate, with MDA-MB-435 and with MDA-N was over 100 µM each time. Also, the TGI with T-47D breast and in the experiment with BT-549 breast was over 100 µM in each case.
As for `CCN(CC)CCNc1ccc2nnn3c4ccc(C)cc4c(=O)c1c23`, the TGI in the experiment on DMS 114 small cell lung was 21.3 µM; with SN12C renal it was 22.3 µM; with LXFL 529 NSCLC, 24.5 µM; in the experiment with KM20L2 colon, 19.3 µM.
For the molecule `O=C1CSC(=S)N1`, the TGI in the experiment on HS 578T breast, with MDA-MB-231 breast, in the experiment on SN12C renal, with DU-145 prostate, in the experiment with MDA-N and with T-47D breast was over 100 µM each time.
As for `O=C1NC2=C(CCCC/C2=N\O)C12CCCCC2`, the TGI in the experiment on DMS 114 small cell lung, in the experiment with SN12C renal, in the experiment on LXFL 529 NSCLC, in the experiment with XF 498 CNS and with KM20L2 colon was over 100 µM in each case.
Turning to `Fc1ccc(C2CC(c3cccc(Nc4ccncc4)c3)=NN2c2ccc(Cl)cc2)cc1` (centres undefined), the GI50 is 1.74 µM with HS 578T breast; 1.51 µM in the experiment with MDA-MB-231 breast; 1.67 µM in the experiment on SN12C renal; 1.78 µM in the experiment with DU-145 prostate; 1.58 µM in the experiment with MDA-MB-435; 2.04 µM in the experiment with BT-549 breast. Also, the TGI with HS 578T breast was determined as 3.63 µM; in the experiment on MDA-MB-231 breast, 2.86 µM; with SN12C renal it was 3.16 µM; in the experiment with DU-145 prostate, 3.21 µM; in the experiment on MDA-MB-435 it was 2.95 µM; in the experiment with BT-549 breast it was 4.26 µM.
With `Cc1ccc2c(c1)C(=O)N(N(C)C)CC(=O)N2`, the TGI in the experiment with HOP-18 NSCLC, in the experiment on DMS 114 small cell lung, with LXFL 529 NSCLC and in the experiment with XF 498 CNS was over 100 µM in each case.
